Test results: BindingDB's records for doi:10.1021/jm960541s (Upjohn, 1996)

The compounds below were run against T1, Dimer of Gag-Pol polyprotein [489-587] (Human immunodeficiency virus 1, UniProt P04585) (assay: Protease Inhibition Assay). Settings: pH 5; 22 °C.
T1 construct: 489-587
Source text: (§1) HIV-1 protease was purified and refolded from E. coli inclusion bodies. The substrate used spans the p17-p24 processing site (R-V-S-Q-N-Y-P-I-V-Q-N-K) and was derivatized with biotin and fluorescein isothiocyanate (FITC) at the amino and carboxy termini. In the presence of HIV-l protease, the substrate is rapidly cleaved into two parts. The biotinylated amino terminal fragment binds to the avidin beads while the FITC-containing carboxy1 terminal fragment is removed through the membrane. […] The bound fluorescence is obtained by processing on an IDEXX Screen Machine. Determination of Ki values with this assay requires analysis under conditions in which substrate concentration resides substantially below Km and the inhibitor concentrations greatly exceeds the Ki value and the enzyme concentration.
`CCC[C@]1(CCc2ccccc2)CC(=O)C([C@@H](CC)c2cccc(NS(=O)(=O)c3ccc(C#N)cn3)c2)C(=O)O1` (stereo partly drawn) [5-cyano-N-{3-[(1S)-1-[(6S)-4-hydroxy-2-oxo-6-(2-phenylethyl)-6-propyl-5,6-dihydro-2H-pyran-3-yl]propyl]phenyl}pyridine-2-sulfonamide] gave a Ki of 0.12 nM. Compound `CCC[C@@]1(CCc2ccccc2)CC(=O)C([C@H](CC)c2cccc(NS(=O)(=O)c3ccc(C#N)cn3)c2)C(=O)O1` (stereo partly drawn) [5-cyano-N-{3-[(1R)-1-[(6R)-4-hydroxy-2-oxo-6-(2-phenylethyl)-6-propyl-5,6-dihydro-2H-pyran-3-yl]propyl]phenyl}pyridine-2-sulfonamide] has a Ki of 0.007 nM. Compound `CCC[C@@]1(CCc2ccccc2)CC(=O)C([C@H](CC)c2cccc(NS(=O)(=O)c3cn(C)cn3)c2)C(=O)O1` (stereo partly drawn) [N-{3-[(1R)-1-[(6R)-4-hydroxy-2-oxo-6-(2-phenylethyl)-6-propyl-5,6-dihydro-2H-pyran-3-yl]propyl]phenyl}-1-methyl-1H-imidazole-4-sulfonamide] has a Ki of 0.06 nM. For `CCC[C@]1(CCc2ccccc2)CC(=O)C([C@H](CC)c2cccc(NS(=O)(=O)c3ccc(C(F)(F)F)cn3)c2)C(=O)O1` (stereo partly drawn) [N-{3-[(1R)-1-[(6S)-4-hydroxy-2-oxo-6-(2-phenylethyl)-6-propyl-5,6-dihydro-2H-pyran-3-yl]propyl]phenyl}-5-(trifluoromethyl)pyridine-2-sulfonamide], the Ki was 0.018 nM. For `CCC[C@@]1(CCc2ccccc2)CC(=O)C([C@H](CC)c2cccc(NS(=O)(=O)c3ccc(C(F)(F)F)cn3)c2)C(=O)O1` (stereo partly drawn) [N-{3-[(1R)-1-[(6R)-4-hydroxy-2-oxo-6-(2-phenylethyl)-6-propyl-5,6-dihydro-2H-pyran-3-yl]propyl]phenyl}-5-(trifluoromethyl)pyridine-2-sulfonamide], the Ki was 0.008 nM. `CCC[C@]1(CCc2ccccc2)CC(=O)C([C@@H](CC)c2cccc(NS(=O)(=O)c3ccc(C(F)(F)F)cn3)c2)C(=O)O1` (stereo partly drawn) [N-{3-[(1S)-1-[(6S)-4-hydroxy-2-oxo-6-(2-phenylethyl)-6-propyl-5,6-dihydro-2H-pyran-3-yl]propyl]phenyl}-5-(trifluoromethyl)pyridine-2-sulfonamide] showed a Ki of 0.22 nM. `CCC[C@]1(CCc2ccccc2)CC(=O)C([C@H](CC)c2cccc(NS(=O)(=O)c3ccc(C#N)cn3)c2)C(=O)O1` (stereo partly drawn) [5-cyano-N-{3-[(1R)-1-[(6S)-4-hydroxy-2-oxo-6-(2-phenylethyl)-6-propyl-5,6-dihydro-2H-pyran-3-yl]propyl]phenyl}pyridine-2-sulfonamide] showed a Ki of 0.04 nM. Work on `CCC[C@@]1(CCc2ccccc2)CC(=O)C([C@@H](CC)c2cccc(NS(=O)(=O)c3cn(C)cn3)c2)C(=O)O1` (stereo partly drawn) [N-{3-[(1S)-1-[(6R)-4-hydroxy-2-oxo-6-(2-phenylethyl)-6-propyl-5,6-dihydro-2H-pyran-3-yl]propyl]phenyl}-1-methyl-1H-imidazole-4-sulfonamide] yielded a Ki of 0.3 nM. `CCC[C@@]1(CCc2ccccc2)CC(=O)C([C@@H](CC)c2cccc(NS(=O)(=O)c3ccc(C(F)(F)F)cn3)c2)C(=O)O1` (stereo partly drawn) [N-{3-[(1S)-1-[(6R)-4-hydroxy-2-oxo-6-(2-phenylethyl)-6-propyl-5,6-dihydro-2H-pyran-3-yl]propyl]phenyl}-5-(trifluoromethyl)pyridine-2-sulfonamide] showed a Ki of 0.032 nM. With `CCC[C@]1(CCc2ccccc2)CC(=O)C([C@@H](CC)c2cccc(NS(=O)(=O)c3cn(C)cn3)c2)C(=O)O1` (stereo partly drawn) [N-{3-[(1S)-1-[(6S)-4-hydroxy-2-oxo-6-(2-phenylethyl)-6-propyl-5,6-dihydro-2H-pyran-3-yl]propyl]phenyl}-1-methyl-1H-imidazole-4-sulfonamide] the Ki was 1 nM. For `CCC[C@]1(CCc2ccccc2)CC(=O)C([C@H](CC)c2cccc(NS(=O)(=O)c3cn(C)cn3)c2)C(=O)O1` (stereo partly drawn) [N-{3-[(1R)-1-[(6S)-4-hydroxy-2-oxo-6-(2-phenylethyl)-6-propyl-5,6-dihydro-2H-pyran-3-yl]propyl]phenyl}-1-methyl-1H-imidazole-4-sulfonamide], the Ki was 0.12 nM. `CCC[C@@]1(CCc2ccccc2)CC(=O)C([C@@H](CC)c2cccc(NS(=O)(=O)c3ccc(C#N)cn3)c2)C(=O)O1` (stereo partly drawn) [5-cyano-N-{3-[(1S)-1-[(6R)-4-hydroxy-2-oxo-6-(2-phenylethyl)-6-propyl-5,6-dihydro-2H-pyran-3-yl]propyl]phenyl}pyridine-2-sulfonamide] showed a Ki of 0.1 nM.

The compounds below were run against T2, Dimer of Gag-Pol polyprotein [489-587] (Human immunodeficiency virus 1, UniProt P12497) (assay: Protease Inhibition Assay). Settings: pH 5; 22 °C.
T2 construct: 489-587
Source text: as §1
With `CCCC1(CCc2ccccc2)CC(=O)C(C(CC)c2cccc(NS(=O)(=O)c3ccc(F)cc3)c2)C(=O)O1` (configuration not stated) [4-fluoro-N-(3-{1-[4-hydroxy-2-oxo-6-(2-phenylethyl)-6-propyl-5,6-dihydro-2H-pyran-3-yl]propyl}phenyl)benzene-1-sulfonamide] the Ki was 6 nM. `CCCC1(CCc2ccccc2)CC(=O)C(C(CC)c2cccc(NS(=O)(=O)c3ccccc3)c2)C(=O)O1` (configuration not stated) [N-(3-{1-[4-hydroxy-2-oxo-6-(2-phenylethyl)-6-propyl-5,6-dihydro-2H-pyran-3-yl]propyl}phenyl)benzenesulfonamide] gave a Ki of 17 nM. With `CCCC1(CCc2ccccc2)CC(=O)C(C(CC)c2cccc(NS(=O)(=O)c3cn(C)cn3)c2)C(=O)O1` (configuration not stated) [N-(3-{1-[4-hydroxy-2-oxo-6-(2-phenylethyl)-6-propyl-5,6-dihydro-2H-pyran-3-yl]propyl}phenyl)-1-methyl-1H-imidazole-4-sulfonamide] the Ki was 1 nM. In the case of `CCCC1(CCc2ccccc2)CC(=O)C(C(CC)c2cccc(NS(=O)(=O)c3cccc4cccnc34)c2)C(=O)O1` (configuration not stated) [N-(3-{1-[4-hydroxy-2-oxo-6-(2-phenylethyl)-6-propyl-5,6-dihydro-2H-pyran-3-yl]propyl}phenyl)quinoline-8-sulfonamide], the Ki is reported as 3 nM. In the case of `CCCC1(CCc2ccccc2)CC(=O)C(C(CC)c2cccc(NS(=O)(=O)c3ccc(C#N)cc3)c2)C(=O)O1` (configuration not stated) [4-cyano-N-(3-{1-[4-hydroxy-2-oxo-6-(2-phenylethyl)-6-propyl-5,6-dihydro-2H-pyran-3-yl]propyl}phenyl)benzene-1-sulfonamide], the Ki is reported as 8 nM.
